Test results as given in patent US20250235460A1, “COMBINATION THERAPY USING GLUCOSE-DEPENDENT INSULINOTROPIC POLYPEPTIDE RECEPTOR ANTAGONIST COMPOUNDS AND GLP-1 RECEPTOR AGONIST COMPOUNDS” (Pfizer Inc., priority 2024, published 2025).
pEC50: −log10 of the molar value.

Columns and labels:
human GLP-1R [1] = target: human GLP-1R (Homo sapiens, UniProt P43220, G168S); assay: CHO GLP-1R Clone H6 cAMP HTRF agonist assay (Assay 1, high receptor density); format: cell-based; conditions: for pEC50: CHO GLP-1R clone H6, cAMP HTRF, geometric mean; for Emax: CHO GLP-1R clone H6, arithmetic mean, relative to saturating GLP-1 (1 μM), read-out: Assay 1 Emax (%)
human GLP-1R (Homo sapiens, UniProt P43220, G168S), sequence (P43220 24-463 G168S): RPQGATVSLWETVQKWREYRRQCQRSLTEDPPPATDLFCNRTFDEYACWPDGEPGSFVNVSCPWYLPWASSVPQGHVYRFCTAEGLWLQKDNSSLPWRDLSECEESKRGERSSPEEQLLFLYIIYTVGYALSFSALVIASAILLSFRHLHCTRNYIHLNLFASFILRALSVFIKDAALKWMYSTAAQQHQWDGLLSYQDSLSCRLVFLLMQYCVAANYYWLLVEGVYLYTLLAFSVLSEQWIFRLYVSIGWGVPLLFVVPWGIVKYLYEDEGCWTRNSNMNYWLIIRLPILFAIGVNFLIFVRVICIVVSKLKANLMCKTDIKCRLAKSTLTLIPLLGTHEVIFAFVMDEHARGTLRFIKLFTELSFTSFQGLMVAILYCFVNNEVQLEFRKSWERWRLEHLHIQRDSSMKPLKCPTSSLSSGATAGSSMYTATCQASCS
Outline: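 EC50 values are reported as geometric means and Emax as arithmetic means across the listed number of replicates, both given to two significant figures.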

human GLP-1R [2] = target: human GLP-1R (Homo sapiens, UniProt P43220, L260F); assay: CHO GLP-1R Clone C6 cAMP HTRF agonist assay (Assay 2, low receptor density); format: cell-based; conditions: for pEC50: CHO GLP-1R clone C6, cAMP HTRF, geometric mean
human GLP-1R (Homo sapiens, UniProt P43220, L260F), sequence (P43220 24-463 L260F): as the sequence (P43220 24-463 G168S) above, with S145G, L237F counted along it
From the text: In Table 5 and Table 6, assay data are presented to two (2) significant figures as the geometric mean (EC50s) and arithmetic mean (Emax) based on the number of replicates listed (Number). A blank cell means there was no data for that Example or the Emax was not calculated.

[3] = CHO GLP-1R clone C6, arithmetic mean, relative to saturating GLP-1 (1 μM)

pEC50 (human GLP-1R [1]) | Emax (human GLP-1R [1]) [%] | pEC50 (human GLP-1R [2]) | Emax (human GLP-1R [2]; [3]) [%] | Assay 2 Emax (%) (human GLP-1R [2]; [3]) | SMILES
8.07 | 78 | 7.06 | 82 | – | CCn1c(CN2CCC(c3cccc(OCc4ccc(Cl)cc4F)n3)CC2)nc2ccc(C(=O)O)cc21 [Compound 257B, 2-[(4-{6-[(4-chloro-2-fluorobenzyl)oxy]pyridin-2-yl}piperidin-1-yl)methyl]-1-ethyl-1H-benzimidazole-6-carboxylic acid]
9.05 | 94 | 8.01 | 100 | – | CC(C)n1c(CN2CCC(c3cccc(OCc4ccc(Cl)cc4F)n3)CC2)nc2ccc(C(=O)O)cc21 [Compound 258B, 2-[(4-{6-[(4-chloro-2-fluorobenzyl)oxy]pyridin-2-yl}piperidin-1-yl)methyl]-1-(propan-2-yl)-1H-benzimidazole-6-carboxylic acid]
9.02 | 95 | 7.89 | 91 | – | CC(C)(C)n1cnnc1Cn1c(CN2CCC(c3cccc(OCc4ccc(Cl)cc4F)n3)CC2)nc2ccc(C(=O)O)cc21 [Compound 259B, 1-[(4-tert-butyl-4H-1,2,4-triazol-3-yl)methyl]-2-[(4-{6-[(4-chloro-2-fluorobenzyl)oxy]pyridin-2-yl}piperidin-1-yl)methyl]-1H-benzimidazole-6-carboxylic acid]
– | 100 | – | – | 120 | C[C@H]1CN(c2cccc(OCc3ccc(C#N)cc3)n2)CCN1Cc1nc2ccc(C(=O)O)cc2n1C[C@@H]1CCO1 [Compound 261B, 2-{[(2S)-4-{6-[(4-cyanobenzyl)oxy]pyridin-2-yl}-2-methylpiperazin-1-yl]methyl}-1-[(2S)-oxetan-2-ylmethyl]-1H-benzimidazole-6-carboxylic acid]
8.80 | 83 | 7.55 | 88 | – | O=C(O)c1ccc2nc(CN3CCC(c4cccc(OCc5ccc(Cl)cc5F)n4)CC3)n(CCO)c2c1 [Compound 262B, 2-[(4-{6-[(4-chloro-2-fluorobenzyl)oxy]pyridin-2-yl}piperidin-1-yl)methyl]-1-(2-hydroxyethyl)-1H-benzimidazole-6-carboxylic acid]
7.48 | 80 | 6.17 | 110 | – | CCc1nc(Cn2c(CN3CCC(c4cccc(OCc5ccc(Cl)cc5F)n4)CC3)nc3ccc(C(=O)O)cc32)no1 [Compound 263B, 2-[(4-{6-[(4-chloro-2-fluorobenzyl)oxy]pyridin-2-yl}piperidin-1-yl)methyl]-1-[(5-ethyl-1,2,4-oxadiazol-3-yl)methyl]-1H-benzimidazole-6-carboxylic acid]
8.09 | 64 | 6.64 | 77 | – | O=C(O)c1ccc2nc(CN3CCC(c4cccc(OCc5ccc(Cl)cc5F)n4)CC3)n(Cc3ccc(Cl)cn3)c2c1 [Compound 277B, 2-[(4-{6-[(4-chloro-2-fluorobenzyl)oxy]pyridin-2-yl}piperidin-1-yl)methyl]-1-[(5-chloropyridin-2-yl)methyl]-1H-benzimidazole-6-carboxylic acid]
8.03 | 69 | 7.03 | 92 | – | CCN1CCC(Cn2c(CN3CCC(c4cccc(OCc5ccc(Cl)cc5F)n4)CC3)nc3ccc(C(=O)O)cc32)C1 (centres unmarked) [Compound 278B, 2-[(4-{6-[(4-chloro-2-fluorobenzyl)oxy]pyridin-2-yl}piperidin-1-yl)methyl]-1-[(1-ethylpyrrolidin-3-yl)methyl]-1H-benzimidazole-6-carboxylic acid]
7.96 | 71 | 6.39 | 75 | – | CN1CCCC(Cn2c(CN3CCC(c4cccc(OCc5ccc(Cl)cc5F)n4)CC3)nc3ccc(C(=O)O)cc32)C1 (centres unmarked) [Compound 279B, 2-[(4-{6-[(4-chloro-2-fluorobenzyl)oxy]pyridin-2-yl}piperidin-1-yl)methyl]-1-[(1-methylpiperidin-3-yl)methyl]-1H-benzimidazole-6-carboxylic acid]
7.96 | 65 | 6.42 | 96 | – | O=C(O)c1ccc2nc(CN3CCC(c4cccc(OCc5ccc(Cl)cc5F)n4)CC3)n(CCC3CCCCO3)c2c1 (centres unmarked) [Compound 280B, 2-[(4-{6-[(4-chloro-2-fluorobenzyl)oxy]pyridin-2-yl}piperidin-1-yl)methyl]-1-[2-(tetrahydro-2H-pyran-2-yl)ethyl]-1H-benzimidazole-6-carboxylic acid]
7.85 | 80 | 6.57 | 92 | – | CC(C)c1cc(Cn2c(CN3CCC(c4cccc(OCc5ccc(Cl)cc5F)n4)CC3)nc3ccc(C(=O)O)cc32)on1 [Compound 281B, 2-[(4-{6-[(4-chloro-2-fluorobenzyl)oxy]pyridin-2-yl}piperidin-1-yl)methyl]-1-{[3-(propan-2-yl)-1,2-oxazol-5-yl]methyl}-1H-benzimidazole-6-carboxylic acid]
7.82 | 83 | 6.64 | 110 | – | CN1CCC(CCn2c(CN3CCC(c4cccc(OCc5ccc(Cl)cc5F)n4)CC3)nc3ccc(C(=O)O)cc32)CC1 [Compound 282B, 2-[(4-{6-[(4-chloro-2-fluorobenzyl)oxy]pyridin-2-yl}piperidin-1-yl)methyl]-1-[2-(1-methylpiperidin-4-yl)ethyl]-1H-benzimidazole-6-carboxylic acid]
7.82 | 83 | 6.57 | 88 | – | CN1CCC(Cn2c(CN3CCC(c4cccc(OCc5ccc(Cl)cc5F)n4)CC3)nc3ccc(C(=O)O)cc32)CC1 [Compound 283B, 2-[(4-{6-[(4-chloro-2-fluorobenzyl)oxy]pyridin-2-yl}piperidin-1-yl)methyl]-1-[(1-methylpiperidin-4-yl)methyl]-1H-benzimidazole-6-carboxylic acid]
7.74 | 82 | 6.57 | 83 | – | CN1CCCC1CCn1c(CN2CCC(c3cccc(OCc4ccc(Cl)cc4F)n3)CC2)nc2ccc(C(=O)O)cc21 (centres unmarked) [Compound 284B, 2-[(4-{6-[(4-chloro-2-fluorobenzyl)oxy]pyridin-2-yl}piperidin-1-yl)methyl]-1-[2-(1-methylpyrrolidin-2-yl)ethyl]-1H-benzimidazole-6-carboxylic acid]
7.68 | 82 | 6.70 | 81 | – | CN1CCCCC1Cn1c(CN2CCC(c3cccc(OCc4ccc(Cl)cc4F)n3)CC2)nc2ccc(C(=O)O)cc21 (centres unmarked) [Compound 285B, 2-[(4-{6-[(4-chloro-2-fluorobenzyl)oxy]pyridin-2-yl}piperidin-1-yl)methyl]-1-[(1-methylpiperidin-2-yl)methyl]-1H-benzimidazole-6-carboxylic acid]
7.60 | 78 | 6.48 | 96 | – | CN1CCOC(CCn2c(CN3CCC(c4cccc(OCc5ccc(Cl)cc5F)n4)CC3)nc3ccc(C(=O)O)cc32)C1 (centres unmarked) [Compound 286B, 2-[(4-{6-[(4-chloro-2-fluorobenzyl)oxy]pyridin-2-yl}piperidin-1-yl)methyl]-1-[2-(4-methylmorpholin-2-yl)ethyl]-1H-benzimidazole-6-carboxylic acid]
